Here are results for 2 compounds from paper PMC8689140 (Frontiers in Pharmacology, 2021).

What all share (format): in vitro ADME, human
The test system of one data set is T1, CYP3A4.
T1 construct: tissue Corning Co., Ltd (Shanghai, China); host or cells: human liver microsomes
The experiment in a line: P450 phenotyping, chemical inhibitors in HLMs, CYP3A4. Particulars: CYP3A4 probe substrate, 2 µM, specific inhibitor. The procedure: (§1) According to the result of metabolite identification, three metabolites were selected as the targets for metabolic phenotyping. Seven CYP isozymes (CYP1A2, CYP2B6, CYP2C8, CYP2C9, CYP2C19, CYP2D6, and CYP3A4) were investigated using two kinds of methods: chemical inhibitors in human liver microsomes (HLMs) method (Experiment 1) and rhCYP isozymes method (Experiment 2).
(§2) Experiment 1: HLMs were thawed on ice and diluted in100 mM sodium phosphate buffer (pH 7.4) containing 3 mM magnesium chloride. […] After 10 min of preincubation at 37°C, the reactions were initiated by adding 20 µL of NADPH (10 mM) and then incubated at 37 °C in a shaking water bath for 30 min. The samples were prepared in triplicates. The reactions were terminated by adding 600 µL of ice-cold acetonitrile and stored at −20°C until analysis. Control samples without NADPH and 0-time point samples were included. As positive controls, the probe substrates of each P450 isozyme under the same conditions were tested, and specific inhibitors was added. Next, the samples were centrifuged at 13,000 rpm for 10 min, the supernatants were determined by LC–MS/MS.

Another data set has as its system T2, rhCYP CYP3A4.
T2 construct: purchased Corning Co., Ltd (Shanghai, China)
Put plainly: P450 phenotyping, rhCYP isozymes, CYP3A4. Particulars: rhCYP3A4 probe substrate, 0.4 µM.
Source text: as §1
(§3) Experiment 2: Each rhCYP isozyme was thawed and diluted as above method. As positive controls, the probe substrates of each P450 isozyme were tested under the same conditions. […] Vx ([…]) is the production rate of metabolites for each rhCYP isozyme.

A further data set has as its system T3, CYP2C9.
T3 construct: tissue Corning Co., Ltd (Shanghai, China); host or cells: human liver microsomes
The experiment in a line: P450 phenotyping, chemical inhibitors in HLMs, CYP2C9. To be noted: CYP2C9 probe substrate, 5 µM, specific inhibitor. How it is done: as §1, §2

A further data set has as its system T4, rhCYP CYP2C9.
T4 construct: purchased Corning Co., Ltd (Shanghai, China)
The experiment in a line: P450 phenotyping, rhCYP isozymes, CYP2C9. To be noted: rhCYP2C9 probe substrate, 1 µM.
Source text: as §1, §3

SMILES strings stand for the structures.

Take `Cc1ncc2n1-c1ccc(Cl)cc1C(c1ccccc1F)=NC2` [Midazolam]: in the data set with CYP3A4, the “%Inhibation in HLM” value is recorded as 84.7%. For the same compound, the “CL int in rhCYP” value in the data set with rhCYP CYP3A4 was 9.13 µL/min/pmol.

Consider `O=C(O)Cc1ccccc1Nc1c(Cl)cccc1Cl` [Diclofenac], for which the “%Inhibation in HLM” value in the data set with CYP2C9 worked out at 89.9%. Besides, in the data set on rhCYP CYP2C9, the “CL int in rhCYP” value was found to be 6.15 µL/min/pmol.
